The values that follow come from the PolyMetriX glass transition set.

On to `*/C=C/*` (repeat unit), for which the glass transition temperature was -4.00 °C.

As to `*C(=O)OCCOCCOCCOCCOC(=O)c1ccc(N2C(=O)c3ccc(*)cc3C2=O)cc1` (repeat unit), the glass transition temperature worked out at 52.00 °C. The value for `*CCOC(=O)C1CCC(C(=O)OCCOc2ccc(C3(c4ccc(O*)cc4)c4ccccc4-c4ccccc43)cc2)CC1` (repeat unit) was 120.1 °C; that for `*CCOCCOC(=O)c1ccc(C(=O)O*)cc1` (repeat unit) was 21.90 °C; that for `*CCOCCOC(=O)c1ccc(N/C=N/c2ccc(C(=O)O*)cc2)cc1` (repeat unit) was 77.00 °C. `*CCOCCOC(=O)c1cccc(C(=O)O*)c1` (repeat unit) registered a glass transition temperature of 16.00 °C. The figure for `*CCOCCOCCOc1ccc(/C=C/c2ccc(/C=C/c3ccc(O*)c4ccccc34)cc2)c2ccccc12` (repeat unit) is 83.50 °C; for `*CCOc1ccc(S(=O)(=O)c2ccc(OCCOP(=O)(O*)Oc3ccc(OC)cc3)cc2)cc1` (repeat unit) it is 52.00 °C. `*OC(=O)OCCOCCOC(=O)OC1COC2C(*)COC12` (repeat unit): the glass transition temperature was found to be 46.50 °C. With `*O[Si](*)(C([2H])([2H])[2H])C([2H])([2H])[2H]` (repeat unit), the glass transition temperature was -125.00 °C. The value for `*O[Si](*)(C)CCC(F)(F)C(F)(F)C(F)(F)C(F)(F)F` (repeat unit) was -75.00 °C; that for `*O[Si](*)(C)CCCC(=O)O` (repeat unit) was -29.00 °C; that for `*O[Si](*)(C)CCCCC` (repeat unit) was -112.00 °C. The figure for `*O[Si](*)(C)CCCCC(=O)OCCCCCCCCCCC(F)(F)C(F)(F)C(F)(F)C(F)(F)C(F)(F)C(F)(F)C(F)(F)C(F)(F)F` (repeat unit) is -78.00 °C; for `*O[Si](*)(C)CCCCCC` (repeat unit) it is -110.8 °C; for `*O[Si](*)(C)CCCCCCCCCCC(=O)OCCC(F)(F)C(F)(F)C(F)(F)C(F)(F)C(F)(F)C(F)(F)F` (repeat unit) it is -69.00 °C. The value for `*O[Si](*)(C)CCCCCCCCCCC(=O)Oc1ccc(-c2ccc(OC(=O)c3ccc(OCC)cc3)cc2)cc1` (repeat unit) was 103.40 °C; that for `*O[Si](*)(C)CCCCCCCCCCC(=O)Oc1ccc(-c2ccc(OC(=O)c3ccc(OCCCCCCC)cc3)cc2)cc1` (repeat unit) was 61.10 °C; that for `*O[Si](*)(C)CCCCCCCCCCC(=O)Oc1ccc(C(=O)Oc2ccc(-c3ccc(OC(=O)CCCCC(=O)OC4CC(C)CCC4C(C)C)cc3)cc2)cc1` (repeat unit) was 32.40 °C. Consider `*O[Si](*)(C)CCCCCCCCCCC(=O)Oc1ccc(OC(=O)c2ccc(OCC(C)CC)cc2)cc1` (repeat unit), for which the glass transition temperature is 13.40 °C. Turning to `*O[Si](*)(C)CCCCCCCCCCCOc1ccc(-c2ccc(C(=O)Oc3ccc(C(=O)OC(C)C(=O)OC(C)C(=O)OCC(C)CC)cc3)cc2)cc1` (repeat unit), the glass transition temperature is 20.00 °C. The figure for `*O[Si](*)(C)CCCCCCCCCCCOc1ccc(/C=C/c2ccc(C#N)cc2)cc1` (repeat unit) is -55.00 °C; for `*O[Si](*)(C)CCCCCCCCCCCOc1ccc(/C=C/c2ccc(OC)cc2)cc1` (repeat unit) it is 55.00 °C; for `*O[Si](C)(C)O[Si](*)(C)CCCCCCCCOc1ccc(C(=O)Oc2ccc(C#N)cc2C)cc1` (repeat unit) it is -15.00 °C.

`*O[Si](C)(C)O[Si](C)(C)O[Si](*)(C)c1c(F)c(F)c(F)c(F)c1F` (repeat unit) gave a glass transition temperature of -83.00 °C. Compound `*O[Si](C)(C)O[Si](C)(C)O[Si](C)(C)O[Si](C)(C)c1ccc(Oc2ccc([Si](*)(C)C)cc2)cc1` (repeat unit) came in with a glass transition temperature of -52.00 °C. The figure for `*O[Si](C)(C)O[Si](C)(C)O[Si](C)(C)O[Si](C)(C)c1cccc([Si](*)(C)C)c1` (repeat unit) is -75.00 °C. The figure for `*O[Si](C)(C)[Si](*)(C)C` (repeat unit) is -119.00 °C. The value for `*O[Si](C)(C)c1ccc([Si](*)(C)C)cc1` (repeat unit) was -18.00 °C; that for `*O[Si](C)(C)c1ccc([Si](C)(C)O[SiH](*)C)cc1` (repeat unit) was -65.00 °C; that for `*O[Si](C)(C)c1ccc2ccc([Si](*)(C)C)cc2c1` (repeat unit) was 26.00 °C. In turn, `*O[Si](C)(C)c1cccc(C(F)(F)C(F)(F)c2cccc([Si](*)(C)C)c2)c1` (repeat unit) returned a glass transition temperature of -2.00 °C. Consider `*O[Si](C)(C)c1cccc2c([Si](*)(C)C)cccc12` (repeat unit), for which the glass transition temperature came out at 62.00 °C.

Compound `*O[Si](C)(C)c1cccc2c1ccc1c([Si](*)(C)C)cccc12` (repeat unit) gave a glass transition temperature of 100.00 °C. As for `*O[Si](C)(C=C)O[Si](C)(C)c1ccc([Si](*)(C)C)cc1` (repeat unit), the glass transition temperature was -63.00 °C. The figure for `*O[Si](C)(C=C)O[Si](C)(C=C)O[Si](C)(C)c1ccc([Si](*)(C)C)cc1` (repeat unit) is -86.00 °C. The value for `*O[Si](C)(CCC(F)(F)C(F)(F)C(F)(F)C(F)(F)C(F)(F)C(F)(F)F)O[Si](C)(C)c1ccc([Si](*)(C)C)cc1` (repeat unit) was -55.00 °C; that for `*O[Si](C=C)(C=C)O[Si](C)(C)c1ccc([Si](*)(C)C)cc1` (repeat unit) was -71.00 °C. As to `*Oc1ccc(C(=O)OCCOCCOCCOCCOC(=O)c2ccc(OC(=O)c3ccc(C(*)=O)cc3)cc2)cc1` (repeat unit), the glass transition temperature came to 30.00 °C. The figure for `*Oc1ccc(C(=O)c2ccc(Oc3ccc(C(=O)c4ccc(Oc5ccc(Cc6ccc(*)cc6)cc5)cc4)cc3)cc2)cc1` (repeat unit) is 128.00 °C.

For the compound `*Oc1ccc(C(=O)c2ccc(Oc3ccc(C(=O)c4cccc(C(=O)c5ccc(*)cc5)c4)cc3)cc2)cc1` (repeat unit), the glass transition temperature is 152.00 °C.

In the case of `*Oc1ccc(C(c2ccc(Oc3ccc(C(=O)c4cc(C(=O)c5ccc(*)cc5)cc(C(C)(C)C)c4)cc3)cc2)(C(F)(F)F)C(F)(F)F)cc1` (repeat unit), the glass transition temperature was determined as 181.00 °C. As for `*c1ccc(Oc2ccc(C(=O)c3ccc(Oc4ccc(-c5nnc(*)c6c(-c7ccccc7)c(-c7ccc8ccccc8c7)c(-c7ccc8ccccc8c7)c(-c7ccccc7)c56)cc4)cc3)cc2)cc1` (repeat unit), the glass transition temperature came out at 312.00 °C.

Compound `*c1ccc(Oc2cccc(N3C(=O)c4ccc([Si](C)(C)O[Si](C)(C)c5ccc6c(c5)C(=O)N(c5cccc(Oc7ccc(-c8nnc(*)o8)cc7)c5)C6=O)cc4C3=O)c2)cc1` (repeat unit) returned a glass transition temperature of 165.00 °C. The value for `*c1cccc(Cc2cccc(N3C(=O)c4ccc([Si](C)(C)O[Si](C)(C)c5ccc6c(c5)C(=O)N(*)C6=O)cc4C3=O)c2)c1` (repeat unit) was 217.00 °C.
